The values below come from patent US9562035B2, “Benzamide derivative useful as FASN inhibitors for the treatment of cancer” (Janssen Pharmaceutica NV, priority 2013, dated 2017).

The target of assay [1] is T1, hFASN enzyme (full length) (Homo sapiens, UniProt P49327).
T1 construct: 10 μL hFASN enzyme (full length, 300 ng, purified in house); made in house
In words: Fatty Acid Synthase (FASN) Inhibition Scintillation Proximity Assay. It counts as biochemical. The note with it: for IC50: mean where tested more than once, ~ = standard error of pIC50 larger than 0.5; for inhibition at 10 µM: read-out: FASN % Effect @1E−05M. In outline:
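Purified full-length human FASN (300 ng) incubated 60 min at room temperature with NADPH, [3H]-acetyl-CoA and malonyl-CoA in 100 mM KH2PO4 pH 7.5, 1 mM DTT; compound at 30 μM to 0.01 μM. [3H]-palmitate captured by SPA imaging beads; IC50 from 4-parameter fit, reported as pIC50.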
For orientation: In a scintillation proximity assay essentially only radioactivity close to the scintillant gives light.

The target of assay [2] is T2, FASN Keto-reductase Domain (Homo sapiens, UniProt P49327).
T2 construct: 10 μL hFASN enzyme (full length, 300 ng, purified in house) and 360 μM NADPH; made in house
T2 sequence (P49327 whole entry, the tested form may be a part): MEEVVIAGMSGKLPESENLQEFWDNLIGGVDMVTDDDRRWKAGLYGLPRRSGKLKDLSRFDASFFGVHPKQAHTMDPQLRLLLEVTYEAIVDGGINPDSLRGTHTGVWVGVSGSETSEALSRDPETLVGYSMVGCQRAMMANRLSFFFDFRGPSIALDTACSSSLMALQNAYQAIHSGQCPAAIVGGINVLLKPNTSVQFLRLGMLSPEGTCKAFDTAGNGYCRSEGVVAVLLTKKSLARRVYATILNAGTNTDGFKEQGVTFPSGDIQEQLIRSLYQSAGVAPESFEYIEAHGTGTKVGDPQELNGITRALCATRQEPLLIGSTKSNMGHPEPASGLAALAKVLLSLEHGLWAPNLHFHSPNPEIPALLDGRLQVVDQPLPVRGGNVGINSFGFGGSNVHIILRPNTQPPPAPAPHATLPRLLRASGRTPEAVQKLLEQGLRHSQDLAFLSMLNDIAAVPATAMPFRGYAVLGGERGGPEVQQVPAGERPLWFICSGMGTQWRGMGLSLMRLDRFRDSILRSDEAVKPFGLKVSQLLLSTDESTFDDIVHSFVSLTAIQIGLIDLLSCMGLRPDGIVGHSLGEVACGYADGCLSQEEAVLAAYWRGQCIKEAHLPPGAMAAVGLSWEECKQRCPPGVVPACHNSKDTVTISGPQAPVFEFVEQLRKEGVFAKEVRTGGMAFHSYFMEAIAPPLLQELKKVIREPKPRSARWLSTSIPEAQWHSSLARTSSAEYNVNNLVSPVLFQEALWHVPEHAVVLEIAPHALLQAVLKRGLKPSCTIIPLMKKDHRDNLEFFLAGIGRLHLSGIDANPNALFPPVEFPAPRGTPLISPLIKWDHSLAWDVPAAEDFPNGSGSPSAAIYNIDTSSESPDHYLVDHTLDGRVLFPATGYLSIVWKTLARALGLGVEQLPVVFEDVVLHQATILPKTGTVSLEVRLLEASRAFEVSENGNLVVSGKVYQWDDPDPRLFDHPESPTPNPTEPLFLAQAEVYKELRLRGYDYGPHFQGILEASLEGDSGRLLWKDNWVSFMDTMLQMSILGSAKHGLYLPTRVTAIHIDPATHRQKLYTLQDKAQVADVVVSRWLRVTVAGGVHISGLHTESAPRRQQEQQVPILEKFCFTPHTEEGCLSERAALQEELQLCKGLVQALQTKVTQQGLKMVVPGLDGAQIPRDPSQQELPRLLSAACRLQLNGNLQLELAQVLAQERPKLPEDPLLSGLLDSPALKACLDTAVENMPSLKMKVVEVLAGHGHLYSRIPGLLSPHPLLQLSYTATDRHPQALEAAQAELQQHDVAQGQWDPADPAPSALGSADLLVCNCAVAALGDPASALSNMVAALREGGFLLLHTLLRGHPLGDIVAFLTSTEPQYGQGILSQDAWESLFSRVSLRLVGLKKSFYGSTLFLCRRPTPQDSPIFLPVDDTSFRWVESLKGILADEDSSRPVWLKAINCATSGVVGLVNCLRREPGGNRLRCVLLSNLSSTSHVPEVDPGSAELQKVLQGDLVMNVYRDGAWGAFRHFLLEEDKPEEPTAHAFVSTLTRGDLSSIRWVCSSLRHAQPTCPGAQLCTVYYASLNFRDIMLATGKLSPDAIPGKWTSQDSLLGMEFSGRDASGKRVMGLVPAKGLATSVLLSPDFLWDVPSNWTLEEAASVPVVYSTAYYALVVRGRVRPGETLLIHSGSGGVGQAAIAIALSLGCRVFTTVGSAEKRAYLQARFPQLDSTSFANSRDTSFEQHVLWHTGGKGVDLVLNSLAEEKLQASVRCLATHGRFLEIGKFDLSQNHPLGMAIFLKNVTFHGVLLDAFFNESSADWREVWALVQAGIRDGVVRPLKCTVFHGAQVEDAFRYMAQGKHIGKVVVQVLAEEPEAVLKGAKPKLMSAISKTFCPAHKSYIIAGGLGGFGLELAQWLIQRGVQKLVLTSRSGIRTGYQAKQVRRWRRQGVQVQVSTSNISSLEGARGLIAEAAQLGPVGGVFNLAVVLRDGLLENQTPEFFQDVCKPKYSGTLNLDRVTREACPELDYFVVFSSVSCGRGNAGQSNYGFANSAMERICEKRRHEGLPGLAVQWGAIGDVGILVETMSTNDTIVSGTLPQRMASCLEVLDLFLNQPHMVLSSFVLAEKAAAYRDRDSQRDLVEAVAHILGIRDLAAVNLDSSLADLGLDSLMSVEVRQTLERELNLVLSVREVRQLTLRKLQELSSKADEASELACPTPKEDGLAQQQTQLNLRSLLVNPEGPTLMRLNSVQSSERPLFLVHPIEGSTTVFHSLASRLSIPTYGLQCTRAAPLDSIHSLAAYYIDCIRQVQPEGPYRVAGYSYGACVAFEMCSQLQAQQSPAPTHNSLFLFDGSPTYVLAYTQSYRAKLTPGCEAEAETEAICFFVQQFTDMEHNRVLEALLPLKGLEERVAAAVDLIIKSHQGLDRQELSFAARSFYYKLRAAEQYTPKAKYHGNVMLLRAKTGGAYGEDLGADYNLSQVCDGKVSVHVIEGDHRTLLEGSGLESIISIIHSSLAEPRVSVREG
In words: Fatty Acid Synthase Keto-Reductase Domain (FASN KR) Inhibition. It counts as biochemical. The note with it: mean where tested more than once; read-out: FASN K-R Domain pIC50 (converted). In outline: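 Full-length human FASN (300 ng) in 100 mM KH2PO4 pH 7.5 with 360 μM NADPH and 180 mM ethyl acetoacetate (stock); A340 decrease read over 20 min at room temperature.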

For assay [3], the system named is A2780 ovarian cells. Kind of assay: A2780 Ovarian Cell Proliferation Assay in Lipid Reduced Medium, with Palmitate (control). It counts as cell-based. The note with it: Homo sapiens, A2780; lipid reduced medium, 25 μM palmitate, 96 h, MTT; read-out: Proliferation A2780 with Palmitate pIC50 (converted). Put shortly:
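A2780 cells were seeded in RPMI1640 with 10% FCS, then switched next day to medium with 10% lipid-reduced serum. Compound was added with final 25 μM palmitate, 0.2% fatty-acid-free BSA and 0.2% DMSO, and incubated 96 h at 37 °C. Read-out was MTT absorbance at 544 nm; pIC50 = −log(IC50) from curve fit.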

Assay [4] has as its system A2780 ovarian cells. In words: A2780 Ovarian Cell Proliferation Assay in Lipid Reduced Medium, without Palmitate. The format is cell-based. The note with it: Homo sapiens, A2780; lipid reduced medium, without palmitate, 96 h, MTT; read-out: Proliferation A2780 w/o Palmitate pIC50 (converted). In outline: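 A2780 cells were seeded in 10% FCS medium and switched next day to 10% lipid-reduced serum without palmitate. Compounds at 0.01–30 μM were added with 0.2% DMSO, 0.2% fatty-acid-free BSA and 0.25% ethanol final. After 96 h, MTT absorbance at 544 nm was normalized to plate controls, and IC50/pIC50 came from a 4-parameter logistic fit.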

Molecules are shown by their SMILES. Bounds are passed on as bounds.

T1 sequence (P49327 whole entry): as the sequence (P49327 whole entry, the tested form may be a part) above

For the compound `Cc1ccc(C(=O)N2CCC(c3ccc(-c4cnn(C)c4)cc3)CC2)cc1NC(=O)c1ccc(N2CCN(C)CC2)nc1` [Compound #112, N-(2-Methyl-5-(4-(4-(1-methyl-1H-pyrazol-4-yl)phenyl)piperidine-1-carbonyl)phenyl)-6-(4-methylpiperazin-1-yl)nicotinamide], the IC50 was 11.5 nM in assay [1], 66.1 nM in assay [2], 2690 nM in assay [3] and 30.2 nM in assay [4]. The inhibition at 10 µM in assay [1] was found to be 104%.

With `Cc1ccc(C(=O)N2CCC(c3ccc(-c4cnn(C)c4)cc3)CC2)cc1NC(=O)[C@@H]1CCCN1` [Compound 171, (S)—N-(2-methyl-5-(4-(4-(1-methyl-1H-pyrazol-4-yl)phenyl)piperidine-1-carbonyl)phenyl)pyrrolidine-2-carboxamide], the IC50 in assay [1] is 891 nM; in assay [2], 1000 nM; in assay [3], > 10000 nM; in assay [4], 1200 nM. Also, the inhibition at 10 µM in assay [1] amounted to 84%.

`Cc1ccc(C(=O)N2CCC(c3ccc(-c4ccccc4)cc3)CC2)cc1NC(=O)c1ccc(NC(C)C)nc1` [Compound 225, N-(5-(4-([1,1′-biphenyl]-4-yl)piperidine-1-carbonyl)-2-methylphenyl)-6-(isopropylamino)nicotinamide]: the IC50 in assay [1] was 339 nM; in assay [2], 457 nM; in assay [3], 1580 nM; in assay [4] it was 589 nM. Also, in assay [1], the inhibition at 10 µM was 79%.

As to `Cc1ccc(C(=O)N2CCC(c3ccc(-c4ccco4)cc3)CC2)cc1NC(=O)c1ccc(NC(C)C)nc1` [Compound 252, N-(5-(4-(4-(furan-2-yl)phenyl)piperidine-1-carbonyl)-2-methylphenyl)-6-(isopropylamino)nicotinamide], the IC50 was 166 nM in assay [1], 437 nM in assay [2], 1450 nM in assay [3] and 347 nM in assay [4]. For the same compound, the inhibition at 10 µM in assay [1] was found to be 106%.

Regarding `Cc1ccc(C(=O)N2CCC(c3ccc(-c4cnn(C)c4)cc3)CC2)cc1NC(=O)C1CCN(C(C)C)C1` (stereo not shown) [Compound 207, 1-isopropyl-N-(2-methyl-5-(4-(4-(1-methyl-1H-pyrazol-4-yl)phenyl)piperidine-1-carbonyl)phenyl)pyrrolidine-3-carboxamide], the IC50 in assay [1] was 132 nM; in assay [2], 479 nM; in assay [3] it was > 10000 nM; in assay [4], 182 nM. The inhibition at 10 µM in assay [1] was 105%.

For `Cc1ccc(C(=O)N2CC[C@H](c3ccc(-c4ccnn4C)cc3)[C@H](C)C2)cc1NC(=O)c1ccc(Cl)nc1` (racemic) [Compound #111, (±)-6-chloro-N-(2-methyl-5-((3S,4S)-3-methyl-4-(4-(1-methyl-1H-pyrazol-5-yl)phenyl)piperidine-1-carbonyl)phenyl)nicotinamide], the IC50 in assay [1] was 513 nM; in assay [2], 1780 nM; in assay [3], 4470 nM; in assay [4] it was 1620 nM. Further, in assay [1], the inhibition at 10 µM worked out at 96%.

On to `Cc1ccc(C(=O)N2CCC(c3ccc(-c4cnn(C)c4)cc3)CC2)cc1NC(=O)c1ccc(N(C)C(C)C)nc1` [Compound 92, 6-(Isopropyl(methyl)amino)-N-(2-methyl-5-(4-(4-(1-methyl-1H-pyrazol-4-yl)phenyl)piperidine-1-carbonyl)phenyl)nicotinamide], for which the IC50 in assay [1] was 16.2 nM; in assay [2], 30.9 nM; in assay [3] it was 6030 nM; in assay [4], 9.12 nM. Also, in assay [1], the inhibition at 10 µM is 100%.

Consider `Cc1ccc(C(=O)N2CCC(c3ccc(-c4cnn(C)c4)cc3)CC2)cc1NC(=O)c1ccc(NC2CCC2)nc1` [Compound 134, 6-(cyclobutylamino)-N-(2-methyl-5-(4-(4-(1-methyl-1H-pyrazol-4-yl)phenyl)piperidine-1-carbonyl)phenyl)nicotinamide], for which the IC50 in assay [1] is 57.5 nM; in assay [2], 52.5 nM; in assay [3] it was > 10000 nM; in assay [4], ~38 nM. For the same compound, the inhibition at 10 µM in assay [1] was 111%.

With `Cc1ccc(C(=O)N2CCC(c3ccc(-c4cnn(C)c4)cc3)CC2)cc1NC(=O)c1ccccc1F` [Compound 117, 2-fluoro-N-(2-methyl-5-(4-(4-(1-methyl-1H-pyrazol-4-yl)phenyl)piperidine-1-carbonyl)phenyl)benzamide], the IC50 in assay [1] was 33.1 nM; in assay [2] it was 83.2 nM; in assay [3], > 10000 nM; in assay [4], 138 nM. Besides, the inhibition at 10 µM in assay [1] is 99%.

`Cc1ccc(C(=O)N2CCC(c3ccc(-c4cnn(C)c4)cc3)CC2)cc1NC(=O)c1ccccc1Cl` [Compound 96, 2-chloro-N-(2-methyl-5-(4-(4-(1-methyl-1H-pyrazol-4-yl)phenyl)piperidine-1-carbonyl)phenyl)benzamide]: the IC50 in assay [1] is 31.6 nM; in assay [2], 155 nM; in assay [3], > 10000 nM; in assay [4], 145 nM. For the same compound, in assay [1], the inhibition at 10 µM was found to be 103%.

Take `Cc1ccc(C(=O)N2CC(c3ccc(-c4ccnn4C)cc3)C2)cc1NC(=O)c1ccc(NC2CCC2)nc1` [Compound 62, 6-(cyclobutylamino)-N-(2-methyl-5-(3-(4-(1-methyl-1H-pyrazol-5-yl)phenyl)azetidine-1-carbonyl)phenyl)nicotinamide]: the IC50 was 16.2 nM in assay [1], 51.3 nM in assay [2], 4170 nM in assay [3] and 74.1 nM in assay [4]. In addition, the inhibition at 10 µM in assay [1] turned out to be 103%.

`Cc1ccc(C(=O)N2CC(c3ccc(-c4ccncc4N)cc3)C2)cc1NC(=O)c1ccc(Cl)nc1` [Compound 266, N-(5-(3-(4-(3-aminopyridin-4-yl)phenyl)azetidine-1-carbonyl)-2-methylphenyl)-6-chloronicotinamide]: the IC50 in assay [1] was 38 nM; in assay [2] it was 107 nM; in assay [3] it was > 10000 nM; in assay [4], ~41.7 nM. Moreover, in assay [1], the inhibition at 10 µM turned out to be 112%.

As for `Cc1ccc(C(=O)N2CC(c3ccc(-c4cnn(C)c4)cc3)C2)cc1NC(=O)c1ccc(NC(C)C)nc1` [Compound 24, 6-(isopropylamino)-N-(2-methyl-5-(3-(4-(1-methyl-1H-pyrazol-4-yl)phenyl)azetidine-1-carbonyl)phenyl)nicotinamide], the IC50 in assay [1] was 33.9 nM; in assay [2], 38.9 nM; in assay [3] it was > 10000 nM; in assay [4] it was 85.1 nM. In assay [1], the inhibition at 10 µM is 111%.

Regarding `Cc1ccc(C(=O)N2CC[C@H](c3ccc(-n4ccnc4)cc3)[C@H](C)C2)cc1NC(=O)c1ccc(Cl)nc1` (racemic) [Compound 53, (±)-N-(5-((3S,4S)-4-(4-(1H-imidazol-1-yl)phenyl)-3-methylpiperidine-1-carbonyl)-2-methylphenyl)-6-chloronicotinamide], the IC50 is 251 nM in assay [1], 562 nM in assay [2], 8510 nM in assay [3] and 603 nM in assay [4]. Further, the inhibition at 10 µM in assay [1] is 101%.

As for `COc1cc(C(=O)Nc2cc(C(=O)N3CCC(c4ccc(-c5cnn(C)c5)cc4)CC3)ccc2C)cc(Cl)n1` [Compound 103, 2-Chloro-6-methoxy-N-(2-methyl-5-(4-(4-(1-methyl-1H-pyrazol-4-yl)phenyl)piperidine-1-carbonyl)phenyl)isonicotinamide], the IC50 in assay [1] was 75.9 nM; in assay [2], 148 nM; in assay [3], 4570 nM; in assay [4] it was 141 nM. The inhibition at 10 µM in assay [1] is 95%.

Turning to `COc1ccccc1-c1ccc(C2CCN(C(=O)c3ccc(C)c(NC(=O)c4ccc(NC(C)C)nc4)c3)CC2)cc1` [Compound 200, 6-(isopropylamino)-N-(5-(4-(2′-methoxy-[1,1′-biphenyl]-4-yl)piperidine-1-carbonyl)-2-methylphenyl)nicotinamide], the IC50 in assay [1] is 646 nM; in assay [2], 646 nM; in assay [3], 4570 nM; in assay [4], 708 nM. For the same compound, the inhibition at 10 µM in assay [1] is 86%.

Take `CC(C)Nc1ccc(C(=O)Nc2cc(C(=O)N3CCC(c4ccc(-c5ccc6cnccc6c5)cc4)CC3)ccc2Cl)cn1` [Compound 67, N-(2-chloro-5-(4-(4-(isoquinolin-6-yl)phenyl)piperidine-1-carbonyl)phenyl)-6-(isopropylamino)nicotinamide]: the IC50 was 151 nM in assay [1], ~603 nM in assay [2], 240 nM in assay [3] and 234 nM in assay [4]. The inhibition at 10 µM in assay [1] is 92%.
